Data reported in paper PMC11463018 (Journal of Enzyme Inhibition and Medicinal Chemistry, 2024).

What was measured:
JAK2 = JAK2 (Homo sapiens, UniProt O60674); experiment: Kinase inhibition assay; assay type: biochemical
K-562 = experiment: NCI-60 screening, K-562; assay type: cell-based; settings: Homo sapiens, K562, read-out: GI50, K-562
RPMI-8226 cells = experiment: Apoptosis assay; assay type: cell-based, human; settings: 1 μM, 48 h, flow cytometry
SR = experiment: NCI-60 screening, SR; assay type: cell-based; settings: Homo sapiens, read-out: GI50, SR
EKVX = experiment: NCI-60 screening, EKVX; assay type: cell-based; settings: Homo sapiens, read-out: GI50, EKVX
SK-MEL-28 = experiment: NCI-60 screening, SK-MEL-28; assay type: cell-based; settings: Homo sapiens, SK-MEL-28, read-out: GI50, SK-MEL-28
HDAC3 = HDAC3 (Homo sapiens, UniProt O15379); experiment: In vitro HDAC enzyme assay; assay type: biochemical
Chain of HDAC3 (O15379 whole entry): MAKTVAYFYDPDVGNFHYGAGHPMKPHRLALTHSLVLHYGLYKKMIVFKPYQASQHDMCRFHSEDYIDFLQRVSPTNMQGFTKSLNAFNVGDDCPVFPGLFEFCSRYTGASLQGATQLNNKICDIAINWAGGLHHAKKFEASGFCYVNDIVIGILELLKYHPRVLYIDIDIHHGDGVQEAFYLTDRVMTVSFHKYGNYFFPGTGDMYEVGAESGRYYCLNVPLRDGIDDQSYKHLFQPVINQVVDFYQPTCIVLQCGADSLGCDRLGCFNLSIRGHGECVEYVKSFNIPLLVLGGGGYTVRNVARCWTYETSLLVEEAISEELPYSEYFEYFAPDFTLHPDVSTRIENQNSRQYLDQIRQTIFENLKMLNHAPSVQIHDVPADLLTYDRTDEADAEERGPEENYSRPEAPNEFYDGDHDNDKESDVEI
Chain of HDAC3 (Q9Y618 395-489 partner limits assumed): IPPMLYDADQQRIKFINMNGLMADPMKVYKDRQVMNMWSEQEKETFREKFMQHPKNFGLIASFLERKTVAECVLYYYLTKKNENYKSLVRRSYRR

HDAC1 = HDAC1 (Homo sapiens, UniProt Q13547); experiment: In vitro HDAC enzyme assay; assay type: biochemical
Chain of HDAC1 (Q13547 whole entry): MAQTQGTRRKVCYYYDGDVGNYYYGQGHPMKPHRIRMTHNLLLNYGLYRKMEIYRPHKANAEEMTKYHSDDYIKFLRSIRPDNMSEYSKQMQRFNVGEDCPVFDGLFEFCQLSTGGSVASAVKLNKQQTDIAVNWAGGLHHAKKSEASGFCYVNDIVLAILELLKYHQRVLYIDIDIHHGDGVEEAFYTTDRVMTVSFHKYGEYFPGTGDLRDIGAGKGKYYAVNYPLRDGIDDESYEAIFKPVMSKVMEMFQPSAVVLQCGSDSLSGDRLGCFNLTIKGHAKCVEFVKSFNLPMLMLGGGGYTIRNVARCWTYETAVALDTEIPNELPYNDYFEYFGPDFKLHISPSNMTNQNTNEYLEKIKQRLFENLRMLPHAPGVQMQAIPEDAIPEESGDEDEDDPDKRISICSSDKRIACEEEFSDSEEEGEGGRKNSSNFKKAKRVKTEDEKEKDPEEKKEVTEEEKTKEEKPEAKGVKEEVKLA

MDA-MB-231 = experiment: cells; assay type: cell-based; settings: Homo sapiens, MDA-MB-231, read-out: Antiproliferative effect IC50, MDA-MB-231
HL60 = experiment: NCI-60 screening, HL60; assay type: cell-based; settings: Homo sapiens, HL-60, read-out: GI50, HL60
M14 = experiment: NCI-60 screening, M14; assay type: cell-based; settings: Homo sapiens, M14, read-out: GI50, M14
SK-MEL-2 = experiment: NCI-60 screening, SK-MEL-2; assay type: cell-based; settings: Homo sapiens, SK-MEL-2, read-out: GI50, SK-MEL-2
HDAC6 = molecular target: T1, HDAC6 (Homo sapiens, UniProt Q9UBN7); experiment: In vitro HDAC enzyme assay; assay type: biochemical
T1 sequence (Q9UBN7 1-1215): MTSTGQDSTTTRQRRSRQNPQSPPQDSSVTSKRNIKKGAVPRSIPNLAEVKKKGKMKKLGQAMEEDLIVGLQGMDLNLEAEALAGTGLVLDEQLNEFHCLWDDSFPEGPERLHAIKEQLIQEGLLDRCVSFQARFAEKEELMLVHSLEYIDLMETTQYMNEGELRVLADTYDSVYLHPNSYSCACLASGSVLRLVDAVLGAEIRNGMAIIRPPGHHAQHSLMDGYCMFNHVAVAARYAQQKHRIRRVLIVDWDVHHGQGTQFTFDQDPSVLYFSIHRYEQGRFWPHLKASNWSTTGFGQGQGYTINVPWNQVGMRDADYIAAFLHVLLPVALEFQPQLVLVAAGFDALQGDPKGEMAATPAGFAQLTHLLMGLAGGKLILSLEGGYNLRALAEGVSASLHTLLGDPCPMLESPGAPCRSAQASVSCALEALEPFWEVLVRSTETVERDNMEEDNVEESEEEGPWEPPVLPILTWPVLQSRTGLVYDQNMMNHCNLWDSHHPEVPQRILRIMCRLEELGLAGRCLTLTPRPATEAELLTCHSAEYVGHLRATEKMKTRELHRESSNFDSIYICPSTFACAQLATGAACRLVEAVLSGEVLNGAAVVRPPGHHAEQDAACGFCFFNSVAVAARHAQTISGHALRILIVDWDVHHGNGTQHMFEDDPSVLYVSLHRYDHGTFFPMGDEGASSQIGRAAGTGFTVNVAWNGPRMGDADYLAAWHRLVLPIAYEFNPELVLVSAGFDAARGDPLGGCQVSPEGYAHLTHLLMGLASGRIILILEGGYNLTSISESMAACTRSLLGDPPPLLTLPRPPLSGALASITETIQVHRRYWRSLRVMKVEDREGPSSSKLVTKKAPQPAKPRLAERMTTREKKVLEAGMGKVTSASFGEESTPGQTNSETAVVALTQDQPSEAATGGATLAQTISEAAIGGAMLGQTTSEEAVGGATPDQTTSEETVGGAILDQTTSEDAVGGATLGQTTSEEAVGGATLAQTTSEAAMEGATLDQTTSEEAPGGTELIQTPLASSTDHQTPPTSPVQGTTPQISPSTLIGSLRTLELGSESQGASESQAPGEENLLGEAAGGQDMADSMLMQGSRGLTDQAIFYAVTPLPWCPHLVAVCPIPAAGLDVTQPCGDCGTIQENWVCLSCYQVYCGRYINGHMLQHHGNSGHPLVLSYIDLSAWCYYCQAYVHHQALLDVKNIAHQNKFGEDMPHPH

MOLT-4 = experiment: NCI-60 screening, MOLT-4; assay type: cell-based; settings: Homo sapiens, MOLT-4, read-out: GI50, MOLT-4
UACC-257 = experiment: NCI-60 screening, UACC-257; assay type: cell-based; settings: Homo sapiens, UACC-257, read-out: GI50, UACC-257
HDAC2 = HDAC2 (Homo sapiens, UniProt Q92769); experiment: In vitro HDAC enzyme assay; assay type: biochemical
Chain of HDAC2 (Q92769 whole entry): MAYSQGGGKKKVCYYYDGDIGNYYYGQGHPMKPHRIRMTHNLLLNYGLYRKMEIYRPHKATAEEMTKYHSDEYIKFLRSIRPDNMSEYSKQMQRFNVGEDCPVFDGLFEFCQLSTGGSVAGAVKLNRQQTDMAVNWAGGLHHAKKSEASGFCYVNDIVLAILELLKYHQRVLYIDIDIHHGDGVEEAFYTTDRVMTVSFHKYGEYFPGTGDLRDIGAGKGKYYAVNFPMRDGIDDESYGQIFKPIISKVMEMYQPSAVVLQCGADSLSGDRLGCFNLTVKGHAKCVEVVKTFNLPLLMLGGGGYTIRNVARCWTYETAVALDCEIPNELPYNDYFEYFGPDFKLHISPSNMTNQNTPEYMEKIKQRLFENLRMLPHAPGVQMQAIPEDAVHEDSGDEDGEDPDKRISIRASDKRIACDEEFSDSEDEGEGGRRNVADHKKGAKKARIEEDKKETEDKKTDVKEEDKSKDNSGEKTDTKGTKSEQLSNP

RPMI-8226 [1] = experiment: cells; assay type: cell-based; settings: Homo sapiens, RPMI-8226, read-out: Antiproliferative effect IC50, RPMI-8226
RPMI-8226 [2] = experiment: NCI-60 screening, RPMI-8226; assay type: cell-based; settings: Homo sapiens, RPMI-8226, read-out: GI50, RPMI-8226
HDAC4 = HDAC4 (Homo sapiens, UniProt P56524); experiment: In vitro HDAC enzyme assay; assay type: biochemical
Chain of HDAC4 (P56524 whole entry): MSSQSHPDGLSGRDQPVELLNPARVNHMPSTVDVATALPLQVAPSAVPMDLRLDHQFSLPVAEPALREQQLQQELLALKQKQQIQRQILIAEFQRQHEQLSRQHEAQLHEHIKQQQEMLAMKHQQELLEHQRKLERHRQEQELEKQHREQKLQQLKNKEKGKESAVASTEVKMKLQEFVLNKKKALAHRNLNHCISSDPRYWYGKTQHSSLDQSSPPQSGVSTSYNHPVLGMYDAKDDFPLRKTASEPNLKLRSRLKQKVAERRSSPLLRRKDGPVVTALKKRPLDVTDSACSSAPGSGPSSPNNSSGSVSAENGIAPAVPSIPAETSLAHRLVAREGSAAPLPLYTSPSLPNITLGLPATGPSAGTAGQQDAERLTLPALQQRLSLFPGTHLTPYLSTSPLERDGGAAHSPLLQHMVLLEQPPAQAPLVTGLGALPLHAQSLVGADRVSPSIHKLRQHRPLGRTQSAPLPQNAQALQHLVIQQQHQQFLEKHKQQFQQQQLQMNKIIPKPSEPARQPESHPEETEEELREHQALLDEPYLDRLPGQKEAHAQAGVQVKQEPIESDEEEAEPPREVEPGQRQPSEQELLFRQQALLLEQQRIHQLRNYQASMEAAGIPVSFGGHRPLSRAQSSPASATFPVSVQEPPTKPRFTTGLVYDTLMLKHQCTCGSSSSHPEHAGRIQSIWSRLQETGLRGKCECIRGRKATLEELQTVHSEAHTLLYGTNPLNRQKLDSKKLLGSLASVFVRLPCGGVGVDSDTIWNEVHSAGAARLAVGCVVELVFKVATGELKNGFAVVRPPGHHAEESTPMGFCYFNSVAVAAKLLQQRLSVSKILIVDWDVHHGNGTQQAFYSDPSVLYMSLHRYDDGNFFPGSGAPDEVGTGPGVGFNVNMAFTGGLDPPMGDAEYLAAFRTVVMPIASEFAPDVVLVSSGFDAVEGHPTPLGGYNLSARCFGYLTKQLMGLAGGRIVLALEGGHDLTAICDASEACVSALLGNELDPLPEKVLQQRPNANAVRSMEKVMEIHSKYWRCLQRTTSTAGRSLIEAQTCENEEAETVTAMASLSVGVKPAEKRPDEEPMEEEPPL

TYK2 = TYK2 (Homo sapiens, UniProt P29597); experiment: Kinase inhibition assay; assay type: biochemical
Chain of TYK2 (P29597 whole entry): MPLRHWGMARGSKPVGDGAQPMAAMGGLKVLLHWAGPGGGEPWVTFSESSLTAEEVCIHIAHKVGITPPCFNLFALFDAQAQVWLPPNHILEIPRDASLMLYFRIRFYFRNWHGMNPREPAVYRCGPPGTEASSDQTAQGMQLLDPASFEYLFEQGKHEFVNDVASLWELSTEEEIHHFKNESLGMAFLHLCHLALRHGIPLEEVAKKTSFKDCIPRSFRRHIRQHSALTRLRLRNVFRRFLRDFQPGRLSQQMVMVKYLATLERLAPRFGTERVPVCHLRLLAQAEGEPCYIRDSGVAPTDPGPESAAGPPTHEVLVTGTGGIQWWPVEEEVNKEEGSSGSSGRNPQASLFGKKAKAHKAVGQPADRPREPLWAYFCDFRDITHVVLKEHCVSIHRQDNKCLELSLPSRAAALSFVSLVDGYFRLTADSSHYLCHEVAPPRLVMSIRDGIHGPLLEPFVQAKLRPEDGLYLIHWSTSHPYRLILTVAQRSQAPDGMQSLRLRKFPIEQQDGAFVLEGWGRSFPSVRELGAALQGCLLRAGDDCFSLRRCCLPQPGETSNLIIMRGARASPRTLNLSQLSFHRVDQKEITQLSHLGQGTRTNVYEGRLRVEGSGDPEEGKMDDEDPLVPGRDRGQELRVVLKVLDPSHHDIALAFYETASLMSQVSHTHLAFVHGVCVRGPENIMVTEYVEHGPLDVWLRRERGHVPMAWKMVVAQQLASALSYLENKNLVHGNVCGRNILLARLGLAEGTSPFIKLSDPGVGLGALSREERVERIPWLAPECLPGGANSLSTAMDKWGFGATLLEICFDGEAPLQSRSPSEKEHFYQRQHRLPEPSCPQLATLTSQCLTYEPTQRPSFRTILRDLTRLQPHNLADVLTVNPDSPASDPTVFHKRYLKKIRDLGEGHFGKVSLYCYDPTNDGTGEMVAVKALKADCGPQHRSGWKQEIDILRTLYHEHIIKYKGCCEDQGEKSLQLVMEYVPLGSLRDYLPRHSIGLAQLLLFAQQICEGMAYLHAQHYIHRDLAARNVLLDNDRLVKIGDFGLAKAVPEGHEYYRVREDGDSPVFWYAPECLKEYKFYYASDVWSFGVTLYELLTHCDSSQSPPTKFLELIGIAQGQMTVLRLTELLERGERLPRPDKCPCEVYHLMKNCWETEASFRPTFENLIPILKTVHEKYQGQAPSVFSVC

HDAC8 = HDAC8 (Homo sapiens, UniProt Q9BY41); experiment: In vitro HDAC enzyme assay; assay type: biochemical
HS 578 T = experiment: NCI-60 screening, HS 578 T; assay type: cell-based; settings: Homo sapiens, read-out: GI50, HS 578 T
MALME-3M = experiment: NCI-60 screening, MALME-3M; assay type: cell-based; settings: Homo sapiens, read-out: GI50, MALME-3M
JAK3 = JAK3 (Homo sapiens, UniProt P52333); experiment: Kinase inhibition assay; assay type: biochemical
Chain of JAK3 (P52333 whole entry): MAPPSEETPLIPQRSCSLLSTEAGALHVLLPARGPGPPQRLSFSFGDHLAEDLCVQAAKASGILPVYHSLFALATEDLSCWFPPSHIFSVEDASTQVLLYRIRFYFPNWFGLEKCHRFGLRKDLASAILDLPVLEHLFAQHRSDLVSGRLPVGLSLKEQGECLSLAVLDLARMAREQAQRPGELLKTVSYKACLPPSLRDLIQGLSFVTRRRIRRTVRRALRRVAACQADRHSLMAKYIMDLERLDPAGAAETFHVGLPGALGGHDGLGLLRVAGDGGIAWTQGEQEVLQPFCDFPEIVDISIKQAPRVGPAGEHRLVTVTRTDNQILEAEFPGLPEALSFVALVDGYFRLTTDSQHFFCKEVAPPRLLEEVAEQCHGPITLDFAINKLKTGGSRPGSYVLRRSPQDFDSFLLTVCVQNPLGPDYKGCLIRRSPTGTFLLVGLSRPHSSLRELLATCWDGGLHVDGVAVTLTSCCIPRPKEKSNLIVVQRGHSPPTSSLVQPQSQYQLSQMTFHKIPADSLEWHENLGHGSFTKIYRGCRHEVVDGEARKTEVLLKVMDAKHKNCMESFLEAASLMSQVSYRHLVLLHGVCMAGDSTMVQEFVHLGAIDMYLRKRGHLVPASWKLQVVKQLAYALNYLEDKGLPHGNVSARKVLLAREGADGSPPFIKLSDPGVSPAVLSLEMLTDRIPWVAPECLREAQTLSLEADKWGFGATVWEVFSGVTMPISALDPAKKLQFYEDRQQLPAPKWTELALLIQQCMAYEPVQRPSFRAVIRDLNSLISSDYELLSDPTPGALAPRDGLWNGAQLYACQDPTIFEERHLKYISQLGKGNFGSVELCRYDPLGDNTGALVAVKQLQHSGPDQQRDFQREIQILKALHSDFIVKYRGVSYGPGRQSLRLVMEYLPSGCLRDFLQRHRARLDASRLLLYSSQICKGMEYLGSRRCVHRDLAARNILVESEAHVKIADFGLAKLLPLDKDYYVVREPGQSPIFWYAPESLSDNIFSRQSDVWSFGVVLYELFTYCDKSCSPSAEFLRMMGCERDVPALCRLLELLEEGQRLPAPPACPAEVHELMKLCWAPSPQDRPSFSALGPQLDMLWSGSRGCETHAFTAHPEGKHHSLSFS

SK-MEL-5 = experiment: NCI-60 screening, SK-MEL-5; assay type: cell-based; settings: Homo sapiens, SK-MEL-5, read-out: GI50, SK-MEL-5

Structure (SMILES): O=C(NO)c1ccc(CNc2nc3cccc(-c4ccc5c(c4)OCO5)n3n2)cc1 [Compound 19, 4-(((5-(Benzo[d][1, 3]dioxol-5-yl)-[1,2, 4]triazolo[1,5-a]pyridin-2-yl)amino)methyl)-N-hydroxybenzamide]
- IC50 (JAK2): 278 ± 20 nM
- GI50 (K-562): 320 nM
- Induction of RPMI-8226 cells apoptosis (RPMI-8226 cells): 85.3%
- GI50 (SR): 100 nM
- GI50 (EKVX): 780 nM
- GI50 (SK-MEL-28): 480 nM
- IC50 (HDAC3): 83 ± 2.4 nM
- Fold weaker on HDAC3 than HDAC6 (HDAC3; IC50 HDAC3 vs HDAC6): ~19 fold
- IC50 (HDAC1): 25.4 ± 1.2 nM
- Fold weaker on HDAC1 than HDAC6 (HDAC1; IC50 HDAC1 vs HDAC6): ~6 fold
- IC50 (MDA-MB-231): 750 ± 30 nM
- GI50 (HL60): 440 nM
- GI50 (M14): 550 nM
- GI50 (SK-MEL-2): 250 nM
- IC50 (HDAC6): 4.3 ± 0.1 nM
- GI50 (MOLT-4): 350 nM
- GI50 (UACC-257): 360 nM
- IC50 (HDAC2): 36.5 ± 0.95 nM
- Fold weaker on HDAC2 than HDAC6 (HDAC2; IC50 HDAC2 vs HDAC6): ~8.5 fold
- IC50 (RPMI-8226 [1]): 120 ± 10 nM
- GI50 (RPMI-8226 [2]): 100 nM
- IC50 (HDAC4): > 50000 nM
- HDAC4 IC50 (HDAC4; duplicate, SD <15%): no activity
- IC50 (TYK2): 860 ± 33 nM
- TYK2 IC50 (TYK2; duplicate, SD <15%): very poor inhibitory activities
- IC50 (HDAC8): 640 ± 28.3 nM
- GI50 (HS 578 T): 140 nM
- GI50 (MALME-3M): 250 nM
- IC50 (JAK3): > 10000 nM
- JAK3 IC50 (JAK3; duplicate, SD <15%): very poor inhibitory activities
- GI50 (SK-MEL-5): 550 nM
